From patent US5567692A, “9-[(substituted glycyl) amido)]-6-demethyl-6-deoxytetracyclines” (priority 1995, dated 1996)
Where a name gives a salt, the structure may show the parent alone. Read-outs that look alike come from different tables or passages of the source.

How the values were obtained:
Assay type in all cases: cell-based
E. coli ATCC 25922 = experiment: MIC, agar dilution; settings: Escherichia coli, ATCC25922, 18 h, read-out: MIC
[1] = test system: S. aureus UBMS 88-5 Tet M; experiment: microbe, parasite or virus in culture; settings: Staphylococcus aureus, UBMS885TETM, 18 h
[2] = test system: X. maltophilia NEMC 87210; experiment: MIC, agar dilution; settings: Stenotrophomonas maltophilia, NEMC87210, 18 h
S. aureus ATCC 29213 = experiment: MIC, agar dilution; settings: Staphylococcus aureus, ATCC29213, 18 h, S. aureus ATCC 29213
E. faecalis ATCC 29212 = experiment: MIC, agar dilution; settings: Enterococcus faecalis, ATCC29212, 18 h
[3] = test system: Ps. aeruginosa ATCC 27853; experiment: MIC, agar dilution; settings: Pseudomonas aeruginosa, ATCC27853, 18 h
Enterococcus 12201 = experiment: MIC, agar dilution; settings: Enterococcus, 12201, 18 h
[4] = test system: S. aureus UBMS 88-7 Tet K; experiment: microbe, parasite or virus in culture; settings: Staphylococcus aureus, UBMS887TETK, 18 h
S. aureus UBMS 90-3 = experiment: MIC, agar dilution; settings: Staphylococcus aureus, UBMS903, 18 h
S. aureus SMITH (MP) = experiment: MIC, agar dilution; settings: Staphylococcus aureus, 18 h
[5] = test system: S. aureus UBMS 90-1 Tet M; experiment: microbe, parasite or virus in culture; settings: Staphylococcus aureus, UBMS901TETM, 18 h
E. coli #311 (MP) = experiment: MIC, agar dilution; settings: Escherichia coli, 18 h
E. coli UBMS 90-4 Tet M = experiment: microbe, parasite or virus in culture; settings: Escherichia coli, UBMS904TETM, 18 h
[6] = test system: E. coli MC 4100 Tet sens.; experiment: MIC, agar dilution; settings: Escherichia coli, 18 h
E. coli UBMS 90-5 = experiment: microbe, parasite or virus in culture; settings: Escherichia coli, UBMS905, 18 h, E. coli UBMS 90-5; read-out: MIC
S. aureus ROSE (MP) = experiment: MIC, agar dilution; settings: Staphylococcus aureus, 18 h
E. coli PRP1 Tet A = experiment: microbe, parasite or virus in culture; settings: Escherichia coli, PRP1TETA, 18 h
E. coli J2175 = experiment: MIC, agar dilution; settings: Escherichia coli, 18 h, read-out: MIC
E. coli UBMS 88-1 Tet B = experiment: microbe, parasite or virus in culture; settings: Escherichia coli, UBMS881TETB, 18 h
S. aureus NEMC 8769 = experiment: MIC, agar dilution; settings: Staphylococcus aureus, NEMC8769, 18 h
[7] = test system: S. aureus UBMS 90-2 Tet M; experiment: microbe, parasite or virus in culture; settings: Staphylococcus aureus, UBMS902TETM, 18 h
E. coli J3272 Tet C = experiment: microbe, parasite or virus in culture; settings: Escherichia coli, J3272TETC, 18 h
[8] = test system: S. hemolyticus AVHAH 88-3; experiment: MIC, agar dilution; settings: Streptococcus pyogenes, AVHAH883, 18 h
S. aureus IVES 2943 = experiment: MIC, agar dilution; settings: Staphylococcus aureus, IVES2943, 18 h
E. coli J3272 Tet D = experiment: microbe, parasite or virus in culture; settings: Escherichia coli, J3272TETD, 18 h
S. marcescens FPOR 8733 = experiment: MIC, agar dilution; settings: Serratia marcescens, FPOR8733, 18 h, read-out: MIC
E. coli UBMS 89-1 Tet M = experiment: microbe, parasite or virus in culture; settings: Escherichia coli, UBMS891TETM, 18 h
E. coli BAJ9003 IMP MUT = experiment: microbe, parasite or virus in culture; settings: Escherichia coli, BAJ9003IMPMUT, 18 h
S. aureus IVES 1983 = experiment: MIC, agar dilution; settings: Staphylococcus aureus, IVES1983, 18 h
S. aureus UBMS 88-4 = experiment: MIC, agar dilution; settings: Staphylococcus aureus, UBMS884, 18 h
[9] = test system: E. coli UBMS 89-2 Tet sens.; experiment: MIC, agar dilution; settings: Escherichia coli, 18 h
[10] = test system: E. coli MC 4100 TNIOC Tet B; experiment: microbe, parasite or virus in culture; settings: Escherichia coli, 18 h

SMILES	MIC (E. coli ATCC 25922) [µg/mL]	MIC [1] [µg/mL]	MIC [2] [µg/mL]	MIC (S. aureus ATCC 29213) [µg/mL]	MIC [3] [µg/mL]	MIC [4] [µg/mL]	MIC [5] [µg/mL]	MIC (E. coli UBMS 90-4 Tet M) [µg/mL]	MIC [6] [µg/mL]	MIC (E. coli UBMS 90-5) [µg/mL]	MIC (E. coli J2175) [µg/mL]	MIC (E. coli UBMS 88-1 Tet B) [µg/mL]	MIC (S. aureus NEMC 8769) [µg/mL]	MIC [7] [µg/mL]	MIC (E. coli J3272 Tet C) [µg/mL]	MIC (E. coli J3272 Tet D) [µg/mL]	MIC (S. marcescens FPOR 8733) [µg/mL]	MIC (E. coli UBMS 89-1 Tet M) [µg/mL]	MIC (E. coli BAJ9003 IMP MUT) [µg/mL]	MIC (S. aureus UBMS 88-4) [µg/mL]	other results
CN(C)[C@@H]1C(O)=C(C(N)=O)C(=O)[C@@]2(O)C(O)=C3C(=O)c4c(ccc(NC(=O)CNCc5ccccc5)c4O)CC3CC12 (stereo partly drawn) [J, [4S-(4alpha,12aalpha)]-4-(Dimethylamino)-1,4,4a,5,5a,6,11,12a-octahydro-3,10,12,12a-tetrahydroxy-1,11-dioxo-9-[[[(phenylmethyl)amino]acetyl]amino]-2-naphthacenecarboxamide dihydrochloride]	4	2	16	1	> 32	4	4	4	0.5	4	4	4	1	1	4	4	> 32	2	0.5	1	MIC (E. faecalis ATCC 29212): 0.25 µg/mL; MIC (Enterococcus 12201): 2 µg/mL; MIC (S. aureus UBMS 90-3): 0.5 µg/mL; MIC (S. aureus SMITH (MP)): 0.5 µg/mL; MIC (E. coli #311 (MP); E. coli #311 (MP), read-out: MIC): 4 µg/mL; MIC (S. aureus ROSE (MP); read-out: MIC): 8 µg/mL; MIC (E. coli PRP1 Tet A): 4 µg/mL; MIC ([8]; S. hemolyticus AVHAH 88-3, read-out: MIC): 4 µg/mL; MIC (S. aureus IVES 2943; S. aureus IVES 2943, read-out: MIC): 4 µg/mL; MIC (S. aureus IVES 1983; S. aureus IVES 1983, read-out: MIC): 4 µg/mL
CCN(CC)CC(=O)Nc1ccc2c(c1O)C(=O)C1=C(O)[C@]3(O)C(=O)C(C(N)=O)=C(O)[C@@H](N(C)C)C3CC1C2 (stereo partly drawn) [O, [4S-(4alpha,12aalpha)]-9-[[(Diethylamino)acetyl]amino]-4-(dimethylamino)-1,4,4a,5,5a,6,11,12a-octahydro-3,10,12,12a-tetrahydroxy-1,11-dioxo-2-naphthacenecarboxamide dihydrochloride]	0.5	0.5	1	0.5	32	0.5	0.5	0.5	0.5	1	1	1	1	0.5	1	0.5	8	0.5	0.12	0.5	MIC (E. faecalis ATCC 29212; E. faecalis ATCC 29212, read-out: MIC): 0.25 µg/mL; MIC [9]: 1 µg/mL; MIC (Enterococcus 12201; Enterococcus 12201, read-out: MIC): 0.25 µg/mL; MIC (S. aureus UBMS 90-3; S. aureus UBMS 90-3, read-out: MIC): 0.25 µg/mL; MIC (S. aureus SMITH (MP); S. aureus SMITH (MP), read-out: MIC): 0.25 µg/mL; MIC (E. coli #311 (MP)): 1 µg/mL; MIC (S. aureus ROSE (MP)): 2 µg/mL; MIC [8]: 2 µg/mL; MIC (S. aureus IVES 2943): 1 µg/mL; MIC [10]: 1 µg/mL; MIC (S. aureus IVES 1983): 0.5 µg/mL
